# Reference: patent EP4733400A1, “ANTISENSE OLIGONUCLEOTIDE TARGETING HIC-5” (SHOWA Medical University, priority 2023, dated 2025)
# {TEG-Chol} = cholesterol attached via TEG linker; l = locked nucleic acid (LNA); {Toco} = tocopherol conjugate; d = 2'-deoxy (DNA)
# Test system: Hic-5
# Assay: Condition 8: Hic-5 expression by RT-PCR, human HSCs, ASO 5 µM without transfection reagent, 72 hours
# Type: cell-based
# Conditions: ratio, mean±SEM
row,Substance,Expression Inhibition Rate (4) Condition 8 (n=2)
1,"H26_cho: modified at the 5' end of H26 with TEG-cholesterol; GCTCGTGGAAACCCTC; LNA 1-3,14-16; SEQ ID NO 458 (sugars from the 5' end l3 d10 l3, 5' {TEG-Chol}, backbone and methylation of C not given here)",0.161±0.110
2,"H26_toco: modified at the 5' end of H26 with tocopherol; GCTCGTGGAAACCCTC; LNA 1-3,14-16; SEQ ID NO 459 (sugars from the 5' end l3 d10 l3, 5' {Toco}, backbone and methylation of C not given here)",0.738±0.010
